Test results published in US10806794B2, “Protease inhibitors having enhanced features” (priority 2008, dated 2020).
Several values for one entry are separate records, joined by “and”; a condition that tells them apart may be missing. Equal values may be shown once. Read-outs that look alike come from different tables or passages of the source.

Legend:
PBMCs [1] = test: PBMC macromolecule synthesis (tritiated precursor incorporation); type: cell-based, human; settings: for Thymidine Incorporation (PBMC) TC50: DNA synthesis; for Uridine Incorporation (PBMC) TC50: RNA synthesis; for Leucine Incorporation (PBMC) TC50: protein synthesis
Description: Cellular macromolecule synthesis was evaluated using tritiated precursor incorporation assays. PBMCs (5×10^4 cells/well) were cultured in the presence or absence of test compound for 7 days at 37 C, 5% CO2 in a 96-well microtiter plate. On day 6 of the incubation, 1 uCi of [methyl-3H]-thymidine for DNA synthesis, [5-3H]-uridine for RNA synthesis, or [3,4,5-3H]-leucine for protein synthesis was added to compound-treated cells, and the plate was further incubated for 16 hours. The cells were transferred to a glass fiber filtermat using an Inotech cell harvester. The filtermats were washed with distilled water then sealed in a bag with scintillation fluid. Incorporated radioactivity was measured using a Wallac scintillation counter.

HIV-1RF = test: Anti-HIV cytoprotection in CEM-SS cells infected with HIV-1RF (XTT); type: cell-based
Description: To evaluate whether conjugated protease inhibitors retain the ability to protect against HIV-1 infection, CEM-SS cells infected with the RF strain of HIV-1 were treated with test compounds for six days, and then cell viability was monitored using the tetrazolium dye XTT. […] A value for Therapeutic Index (TI) was calculated as TC50/EC50.

CYP1A2 = CYP1A2 (Homo sapiens (Human), UniProt P05177); test: CYP450 inhibition in human liver microsomes: CYP1A2
CYP1A2, sequence (P05177 whole entry): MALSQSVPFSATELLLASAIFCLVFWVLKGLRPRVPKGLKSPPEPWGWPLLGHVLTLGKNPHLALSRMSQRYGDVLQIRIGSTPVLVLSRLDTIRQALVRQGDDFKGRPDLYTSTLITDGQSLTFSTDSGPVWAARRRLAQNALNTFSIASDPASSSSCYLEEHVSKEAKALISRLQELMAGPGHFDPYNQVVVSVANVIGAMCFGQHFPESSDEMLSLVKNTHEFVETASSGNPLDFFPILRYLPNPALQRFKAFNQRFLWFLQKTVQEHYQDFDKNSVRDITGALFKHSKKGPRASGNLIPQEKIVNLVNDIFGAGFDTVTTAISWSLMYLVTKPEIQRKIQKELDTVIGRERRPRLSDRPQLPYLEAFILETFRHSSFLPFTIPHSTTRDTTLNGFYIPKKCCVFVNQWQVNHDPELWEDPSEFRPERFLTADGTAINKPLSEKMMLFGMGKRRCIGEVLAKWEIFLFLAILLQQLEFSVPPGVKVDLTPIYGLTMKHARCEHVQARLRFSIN

PBMCs [2] = test: PBMC cytotoxicity (XTT); type: cell-based, human; settings: 7 days
Description: Mononuclear cells were isolated from fresh human peripheral blood cells by Ficoll-Hypaque density gradient by centrifugation at 600 g for 30 minutes. Banded peripheral blood mononuclear cells (PBMCs) were aspirated from the resulting interface and washed with phosphate buffered saline by low speed centrifugation. Cell viability was evaluated by Trypan Blue dye exclusion. […] Plates were incubated at 37° C., 5% CO2 for 7 days prior to cytotoxicity evaluation. XTT measurement for cytotoxicity.

CYP2D6 = CYP2D6 (Homo sapiens (Human), UniProt P10635); test: CYP450 inhibition in human liver microsomes: CYP2D6
CYP2D6, sequence (P10635 whole entry): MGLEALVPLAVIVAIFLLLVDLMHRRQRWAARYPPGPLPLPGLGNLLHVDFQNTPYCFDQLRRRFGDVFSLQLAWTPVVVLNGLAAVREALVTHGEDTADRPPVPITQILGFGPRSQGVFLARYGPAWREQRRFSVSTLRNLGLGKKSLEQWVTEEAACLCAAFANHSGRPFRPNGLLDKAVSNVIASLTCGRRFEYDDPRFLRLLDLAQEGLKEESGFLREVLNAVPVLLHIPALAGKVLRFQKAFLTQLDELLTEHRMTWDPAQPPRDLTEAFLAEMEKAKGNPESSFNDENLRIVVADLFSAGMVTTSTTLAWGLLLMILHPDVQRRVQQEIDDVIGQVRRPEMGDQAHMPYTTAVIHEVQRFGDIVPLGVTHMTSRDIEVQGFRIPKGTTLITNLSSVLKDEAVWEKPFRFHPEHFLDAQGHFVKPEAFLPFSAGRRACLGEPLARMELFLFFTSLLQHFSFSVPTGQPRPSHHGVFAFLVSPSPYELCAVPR

human monocytes = test: Toxicity in human monocytes in the absence of viral infection
Description: (§1) Fresh human monocytes were infected with the BaL strain of HIV-1 in the presence of test compounds. After seven days in culture, HIV-1 replication was evaluated by measurement of HIV-1 viral capsid protein (p24) in the tissue culture supernatant (Table 7). […] A TI was calculated as described above using TC50 values derived from cell toxicity data in response to test compounds in the absence of viral infection.

HIV-1BaL = test: HIV-1 p24 levels after infection of fresh human monocyte/macrophages; type: cell-based
Description: Mononuclear cells were isolated from fresh human peripheral blood cells by Ficoll-Hypaque density gradient by centrifugation at 600 g for 30 minutes. Banded peripheral blood mononuclear cells (PBMCs) were aspirated from the resulting interface and washed with phosphate buffered saline by low speed centrifugation. […] Cells were allowed to attach for 2 to 12 h at 37° C., then washed with Dulbecco's phosphate buffered saline (DPBS). Monocyte-macrophage monolayer formation was induced by incubation in growth medium (RPMI 1640 medium supplemented with 10% fetal bovine serum, 2 mmol/L L-glutamine, 100 Units/mL penicllin and 10 μg/mL streptomycin) for 7 days. Residual PBMCs were removed by washing the cell monolayers with DPBS. After washing, test compound diluted in growth medium was added to cells. Immediately following test compound addition, HIV-1 virus was added to the cells at multiplicity of infection (MOI)=0.05-0.10. After 7 days in culture, HIV-1 replication was quantified by ELISA measurement of cell-free HIV-1 viral capsid protein (p24) in the tissue culture supernatant of treated monocyte-macrophage monolayers. ELISA to quantify p24 was performed according to manufacturer's instructions (Perkin Elmer, Waltham, Mass.). The quantity of free HIV-1 p24 antigen in the sample was determined by comparing its absorbance at 490 nm to that of control standards.
as §1

[3] = system: monocyte-derived dendritic cells; test: Cytotoxicity in monocyte-derived dendritic cells (XTT); type: cell-based, human
From the text: Cell viability is directly proportional to the amount of reduced XTT product formed.

[4] = system: cynomolgus monkey hepatocytes; test: Metabolic stability in cynomolgus monkey hepatocytes; type: in vitro ADME; settings: 0.1 uM
[5] = Metabolic stability in human liver microsomes; settings: human liver microsomes, 3 μM;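 on t1/2: microsomal protein 0.5 mg/mL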
Summary of the method: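 Substrate depletion: compounds at 3 μM final with pooled mixed-sex human liver microsomes (0.5 mg/mL) in 0.1 M phosphate pH 7.4 at 37 °C. Remaining parent quantified by LC-MS/MS.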

HIV-1 HT/92/599 = test: HIV-1 reverse transcriptase activity after infection of fresh human PBMCs; type: cell-based; settings: read-out: PBMC/HIV-1HT/92/599 EC50 ± SD; seven days, reverse transcriptase activity
Summary of the method: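 PHA-P/IL-2-stimulated fresh human PBMCs infected with HIV-1; supernatant reverse transcriptase activity measured by tritiated TTP incorporation on poly rA/oligo dT, 90 min at 37° C. Toxicity from 7-day uninfected PBMC culture read by XTT; TI = TC50/EC50.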

CYP3A4 = CYP3A4 (Homo sapiens (Human), UniProt P08684); test: CYP450 inhibition in human liver microsomes: CYP3A4;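 further: incubation at 37 °C started by adding 1 mM NADPH, with formation of the probe metabolite measured via LC-MS/MS or fluorescent detection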
CYP3A4, sequence (P08684 whole entry): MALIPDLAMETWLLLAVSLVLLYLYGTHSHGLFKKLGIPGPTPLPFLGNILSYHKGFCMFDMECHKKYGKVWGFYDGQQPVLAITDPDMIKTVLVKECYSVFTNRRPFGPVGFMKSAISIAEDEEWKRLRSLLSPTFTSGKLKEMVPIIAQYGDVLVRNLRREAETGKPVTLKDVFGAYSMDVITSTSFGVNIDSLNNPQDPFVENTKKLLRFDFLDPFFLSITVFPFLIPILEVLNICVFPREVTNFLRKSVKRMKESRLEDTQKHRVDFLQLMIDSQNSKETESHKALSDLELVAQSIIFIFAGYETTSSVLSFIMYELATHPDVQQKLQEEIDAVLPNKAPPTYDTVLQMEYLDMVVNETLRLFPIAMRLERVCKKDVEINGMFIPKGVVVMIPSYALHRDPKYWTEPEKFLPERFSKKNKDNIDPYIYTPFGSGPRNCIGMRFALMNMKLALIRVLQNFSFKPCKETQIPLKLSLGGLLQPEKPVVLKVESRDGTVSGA

[6] = six days, XTT, read-out: CEM-SS/HIV-1RF EC50 ± SD
[7] = monocyte/macrophages, absence of viral infection
[8] = seven days, p24, read-out: Monocyte/HIV-1BaL EC50
[9] = read-out: CYP3A4 IC50 Midazolam, probe substrate midazolam
[10] = read-out: CYP3A4 IC50 Testosterone, probe substrate testosterone
[11] = read-out: CYP1A2 IC50 Phenacetin, probe substrate phenacetin
[12] = read-out: CYP2D6 IC50 Dextromethorphan, probe substrate dextromethorphan

Row | Compound | Thymidine Incorporation (PBMC) TC50 (PBMCs [1]) [µM] | Uridine Incorporation (PBMC) TC50 (PBMCs [1]) [µM] | Leucine Incorporation (PBMC) TC50 (PBMCs [1]) [µM] | EC50 (HIV-1RF; [6]) | XTT (PBMC) TC50 (PBMCs [2]) [µM] | TC50 (human monocytes; [7]) [µM] | TC50 [3] [µM] | CLint ± SEM [4] [μL/min/10^6 cells] | t1/2 [4] [h] | CLint ± SEM [5] [μL/min/mg protein] | t1/2 [5] [min] | EC50 (HIV-1 HT/92/599) | EC50 (HIV-1BaL; [8]) [µM] | IC50 (CYP3A4; [9]) [µM] | IC50 (CYP3A4; [10]) [µM] | TC50 (human monocytes) [µM] | IC50 (CYP1A2; [11]) [µM] | IC50 (CYP2D6; [12]) [µM] | further results
1 | COC(=O)N[C@H](C(=O)N[C@@H](Cc1ccccc1)[C@@H](O)CN(Cc1ccc(-c2ccccn2)cc1)NC(=O)[C@@H](NC(=O)OC)C(C)(C)C)C(C)(C)C [Atazanavir, reference compound] | 81.1 | 87.2 | 94.7 | 0.015 ± 0.014 µM | 109.4 |  |  |  |  |  |  |  |  |  |  |  |  |  | IC50 (CYP1A2): 20.6 µM; IC50 (CYP2D6): 14.9 µM
2 | CC(C)CN(C[C@@H](O)[C@H](Cc1ccccc1)NC(=O)O[C@H]1CO[C@H]2OCC[C@H]21)S(=O)(=O)c1ccc(N)cc1 [Darunavir, reference compound] | 184.3 | 189.3 | 258.3 |  | 328.4 | >200.0 | >200 |  |  |  |  |  |  |  |  |  |  |  | EC50 (HIV-1RF; Human immunodeficiency virus 1, CEM-SS, 144 h, read-out: CEM-SS/HIV-1RF EC50 ± SD, six days, XTT): < 0.0007 µM; EC50 (HIV-1RF; read-out: CEM-SS/HIV-1RF EC50 ± SD, six days, XTT): < 0.00066 µM and 0.001 µM; EC50 (HIV-1BaL; Human immunodeficiency virus 1, Monocyte, 168 h, read-out: Monocyte/HIV-1BaL EC50, seven days, p24): < 0.02 µM
3 | COCCOCCOCCOc1ccc(C[C@H](NC(=O)O[C@H]2CO[C@H]3OCC[C@H]32)C(O)CN(CC(C)C)S(=O)(=O)c2ccc(N)cc2)cc1 (some centres unmarked) [mPEG3-O-Darunavir] | 109.6 | 139.4 | 218.9 |  | >400.0 | >200.0 | >200 | 8.53 ± 0.563 | 2.72 | 77.4 ± 9.14 | 17.9 | 0.027 ± 0.006 µM | 1.03 ± 1.45 | 2.59 | 4.9 |  |  |  | 
4 | COCCOCCOCCOCCOCCNc1ccc(S(=O)(=O)N(CC(C)C)CC(O)[C@H](Cc2ccccc2)NC(=O)O[C@H]2CO[C@H]3OCC[C@H]32)cc1 (some centres unmarked) [mPEG5-N-Darunavir] | 41.3 | 73.2 | 98.5 |  | 223.5 | >200.0 | >200 | 26.5 ± 0.942 | 0.872 | 440 ± 19.0 | 3.15 | < 0.02 µM and 0.033 µM | 0.303 ± 0.366 | 2.7 | 4 |  |  |  | 
5 | COCCOCCOCCOCCOCCOc1ccc(C[C@H](NC(=O)O[C@H]2CO[C@H]3OCC[C@H]32)C(O)CN(CC(C)C)S(=O)(=O)c2ccc(N)cc2)cc1 (some centres unmarked) [mPEG5-O-Darunavir] | >400.0 | >400.0 | >400.0 |  | >400.0 | >200.0 | >200 |  |  | 198 ± 22.1 | 7.00 | 0.09 ± 0.008 µM | 0.263 ± 0.155 | > 2.5 | > 25 |  |  |  | 
6 | COCCOCCOCCOCCOCCOCCOCCNc1ccc(S(=O)(=O)N(CC(C)C)CC(O)[C@H](Cc2ccccc2)NC(=O)O[C@H]2CO[C@H]3OCC[C@H]32)cc1 (some centres unmarked) [mPEG7-N-Darunavir] |  |  |  | 0.014 µM and 0.011 µM | 381.3 | >200.0 | >200 | 0.286 ± 0.504 | 80.83 | 356 ± 7.74 | 3.89 | 0.073 ± 0.012 µM | 0.577 ± 0.423 | 5.4 | 12.9 |  |  |  | 
7 | COCCOC(=O)NC(C(=O)NC(Cc1ccccc1)C(O)CN(Cc1ccc(-c2ccccn2)cc1)NC(=O)C(NC(=O)OC)C(C)(C)C)C(C)(C)C (centres unmarked) [mono-mPEG1-Atazanavir] |  |  |  | 0.002 ± 0.0006 µM |  |  | >1.0 | 70.3 ± 0.0027 | 0.328 | 181 ± 0.640 | 7.65 | < 0.02 µM | < 0.02 | 2.56 | 10.4 | 159.1 | > 25 | 18.3 | 
8 | COCCOCCOCCOCCOCCOC(=O)NC(C(=O)NC(Cc1ccccc1)C(O)CN(Cc1ccc(-c2ccccn2)cc1)NC(=O)C(NC(=O)OC)C(C)(C)C)C(C)(C)C (centres unmarked) [mono-mPEG5-Atazanavir] |  |  |  | 0.001 ± 0.0006 µM |  |  | >1.0 | 13.8 ± 0.00163 | 1.67 | 108 ± 9.75 | 12.9 |  | 0.0566 ± 0.0122 | 9.35 | > 25 | 120.8 | > 25 | 22.2 | 
9 | COCCOCCOCCOCCOCCOCCOC(=O)NC(C(=O)NC(Cc1ccccc1)C(O)CN(Cc1ccc(-c2ccccn2)cc1)NC(=O)C(NC(=O)OC)C(C)(C)C)C(C)(C)C (centres unmarked) [mono-mPEG6-Atazanavir] |  |  |  |  |  |  | >1.0 | 0.245 ± 0.000245 | 94.33 | 112 ± 1.10 | 12.3 | 0.108 µM and 0.117 µM and 0.06 µM | 0.0433 ± 0.0204 | 16.7 | > 25 | 130.2 | > 25 | > 25 | 
10 | COCCOCCOCCOCCOCCOCCOCCOC(=O)NC(C(=O)NC(Cc1ccccc1)C(O)CN(Cc1ccc(-c2ccccn2)cc1)NC(=O)C(NC(=O)OC)C(C)(C)C)C(C)(C)C (centres unmarked) [mono-mPEG7-Atazanavir] |  |  |  | 0.03 ± 0.02 µM |  |  | >1.0 |  |  | 71.0 ± 5.63 | 19.5 | 0.163 ± 0.03 µM | 0.137 ± 0.0601 | 20.1 | > 25 | 132.2 | > 25 | > 25 | 
